Measured values as given in patent publication US20220170930A1, “METHOD FOR SCREENING COMPOUND FOR TREATING OR PREVENTING POLYQ-RELATED NEURODEGENERATIVE DISEASES” (FUDAN UNIVERSITY, priority 2019, published 2022).

How the values were obtained:
HTTexon1-Q72-MBP = target: T1, HTTexon1-Q72-MBP (Homo sapiens, UniProt P42858, INS38QQQQQQQQQQQQQQQQQQQQQQQQQQQQQQQQQQQQQQQQQQQQQQQQQQQ); experiment: OI-RD affinity screening and affinity reaction parameters with HTTexon1-Q72; type: binding
T1 construct: made in house; host or cells: mammalian expression vector pTT5SH8Q2
Protocol: Each compound was printed in duplicate on the microarray. The compound not fixed on the surface of the chip was washed away. The chip was sealed and cleaned. 01-RD microscope was applied to scan the images. […] The chips are cleaned and scanned.
(§1) The difference images of the above steps (1), (2), (3) (the image after incubation minus the image before incubation) was analyzed respectively.
(§2) Each compound was printed in triplicates on the microarray. 01-RD was used to measure the affinity reaction parameters of compounds with HTTexon1-Q72 and HTTexon1-Q25.

LC3B [1] = target: T2, LC3B (Homo sapiens, UniProt Q9GZQ8); experiment: OI-RD affinity with LC3B; type: binding
T2 construct: His8 (N, cleaved yes); GST (from pGEX-6P1) (N, cleaved yes); made in house; host or cells: E. coli BL21(DE3)pLsyS
Protocol: 01-RD images before and after incubation with the target protein was obtained following the method in (1).
as §1
(§3) Each compound was printed in triplicates on the microarray. 01-RD was used to measure the affinity reaction parameters of the compound with LC3B, full-length mHTT (flHTT-Q73) and full-length HTT-Q23 (flHTT-Q23).

wtHTT = target: T3, wtHTT (Mus musculus, UniProt P42859); experiment: Western-blot wtHTT level in primary cultured cortical neurons; type: cell-based; settings: Hdh^Q7/Q7 cortical neurons, 2 days
T3 construct: endogenous in cells; host or cells: primary cortical neurons of newborn Hdh Q140/Q7 and Hdh Q7/Q7 mice
Protocol: (§4) Primary cultured cortical neurons: The brains of Hdh^Q140/Q7 and Hdh^Q7/Q7 newborn mice (P0) were dissected, digested, dissociated, and cultured.
(§5) (1) The primary cultured Hdh^Q140/Q7 and Hdh^Q7/Q7 mouse cortical neuron cells were treated with the compound for 2 days.

LC3B [2] = target: T2, LC3B; experiment: MST affinity with LC3B; type: binding
[3] = target: T4, wild-type ATXN3 protein (ATXN3-Q27) (Homo sapiens, UniProt P54252, G306R/INS305QQQQQQQQQQQQQQQQQ/V212M); experiment: Western-blot wild-type ATXN3 level in fibroblasts; type: cell-based; settings: 100 nM (compound 4: 50 nM), 2 days
T4 construct: endogenous in cells; host or cells: wild-type fibroblasts (Q27) and/or the normal allele in SCA3 patient fibroblasts
Protocol: (§6) Then the levels of mutant ATXN3 protein (ATXN3-Q74, SEQ ID NO: 2) and wild-type ATXN3 protein (ATXN3-Q27, SEQ ID NO: 7) were determined by Western-blots (FIG. 26). […] Therefore, the compound of the present invention can be used to treat SCA3.

mHTT [4] = experiment: Western-blot mHTT level in primary cultured cortical neurons; type: cell-based, mouse; settings: 2 days
Protocol: as §4, §5

flHTT-Q73 = target: T5, flHTT-Q73 (Homo sapiens, UniProt P42858, INS38QQQQQQQQQQQQQQQQQQQQQQQQQQQQQQQQQQQQQQQQQQQQQQQQQQQQ); experiment: MST affinity with flHTT-Q73; type: binding
T5 construct: LC3B, full-length mHTT (flHTT-Q73) and full-length HTT-Q23 (flHTT-Q23); protein A (N, cleaved yes); made in house; host or cells: human embryonic kidney E293 cells

mHTT [5] = target: T6, mHTT (Homo sapiens, UniProt P42858, INS38QQQQQQQQQQQQQQQQQQQQQQQQQQ); experiment: HTRF mHTT level in HD patient iPSC-derived neurons; type: cell-based; settings: iPSC-derived neurons (Q47)
T6 construct: endogenous in cells; host or cells: HD patient iPSC-derived neurons (Q47)

[6] = target: T7, mutant ATXN1 protein (His-ATXN1-Q92) (Homo sapiens, UniProt P54253, INS208QQQQQQQQQQQQQQQQQQQQQQQQQQQQQQQQQQQQQQQQQQQQQQQQQQQQQQQQQQQQQQQQQQQQQQQQQQQQQQQQ); experiment: HTRF mutant ATXN1 level in His-ATXN1-Q92-expressing cells; type: cell-based; settings: 100 nM, 2 days, anti-His-Tb/MW1-D2
T7 construct: expressed in transfected cells; host or cells: HEK293T cells (ATCC, CRL-3216)

His-ATXN1-Q92 = target: T8, His-ATXN1-Q92 (Homo sapiens, UniProt P54253, INS208QQQQQQQQQQQQQQQQQQQQQQQQQQQQQQQQQQQQQQQQQQQQQQQQQQQQQQQQQQQQQQQQQQQQQQQQQQQQQQQQ); experiment: OI-RD affinity screening with His-ATXN1-Q92; type: binding; settings: OI-RD difference images
T8 construct: made in house; host or cells: HEK293T cells (ATCC, CRL-3216)
Protocol: (1) PolyQ-ATXN1 cDNA (where polyQ is Q92) was synthesized de novo and subcloned into pcDNA vector. It transfected into HEK293T cells (ATCC, CRL-3216) to obtain cells expressing His-ATXN1-Q92 (SEQ ID NO: 3 with a His tag at the N-terminal).
(2) The His-ATXN1-Q92 expressed in (1) was purified to obtain ATXN1 with abnormally expanded polyQ.
To identify compound(s) that can bind to ATXN1 with abnormally expanded polyQ, screening was conducted using a method similar to step (1) of 1.1, except for that the target protein HTTexon1-Q72-MBP in step (1) of 1.1 was replaced with His-ATXN1-Q92.

HTTexon1-Q25-MBP = target: T9, HTTexon1-Q25-MBP (Homo sapiens, UniProt P42858, DUP35-38); experiment: OI-RD affinity with HTTexon1-Q25; type: binding
T9 construct: made in house; host or cells: mammalian expression vector pTT5SH8Q2
Protocol: OI-RD images before and after incubation with the target protein was obtained following the method in (1).
as §1, §2

[7] = target: T10, full-length mHTT (flHTT-Q73) (Homo sapiens, UniProt P42858, INS38QQQQQQQQQQQQQQQQQQQQQQQQQQQQQQQQQQQQQQQQQQQQQQQQQQQQ); experiment: OI-RD affinity reaction parameters with flHTT-Q73; type: binding
T10 construct: LC3B, full-length mHTT (flHTT-Q73) and full-length HTT-Q23 (flHTT-Q23); protein A (N, cleaved yes); made in house; host or cells: human embryonic kidney E293 cells
Excerpt: as §3

[8] = target: T11, mutant ATXN3 protein (ATXN3-Q74) (Homo sapiens, UniProt P54252, G306R/INS305QQQQQQQQQQQQQQQQQQQQQQQQQQQQQQQQQQQQQQQQQQQQQQQQQQQQQQQQQQQQQQQQ/V212M); experiment: Western-blot mutant ATXN3 level in SCA3 patient fibroblasts; type: cell-based; settings: 100 nM (compound 4: 50 nM), 2 days
T11 construct: endogenous in cells; host or cells: SCA3 patient fibroblasts (Q74)
Protocol: as §6

Q25-GFP [9] = experiment: MST affinity with Q25-GFP
Protocol: (§9) The affinity of the compound with full-length HTT and LC3B was verified with micro thermophoresis (MST) using Monolith NT.115 instrument from NanoTemper Technologies. The reaction buffer was 20 mM HEPES, pH 7.4, 150 mM NaCl.

MBP-ATXN3-Q28 [10] = target: T12, MBP-ATXN3-Q28 (Homo sapiens, UniProt P54252, INS305QQQQQQQQQQQQQQQQQQ); experiment: MST affinity with MBP-ATXN3-Q28; type: binding
T12 construct: His8 with TEV protease cleavage site; made in house; host or cells: Escherichia coli Rosetta(DE3)pLsyS
Protocol: Protein concentration was 500 nM.

mHTT [11] = experiment: Intracerebroventricular injection, mHTT and wtHTT in cortices of HD mice; type: in vivo, mouse; settings: mouse, in vivo
Protocol: Experimental animals: Hdh^Q140/Q7 mice (3 months old), 4 in each group.
Each test includes three repetitions for each sample, and the mean values was calculated (FIG. 16).

MBP-ATXN3-Q68 [12] = target: T13, MBP-ATXN3-Q68 (Homo sapiens, UniProt P54252, INS305QQQQQQQQQQQQQQQQQQQQQQQQQQQQQQQQQQQQQQQQQQQQQQQQQQQQQQQQQQ); experiment: MST affinity with MBP-ATXN3-Q68
Protocol: as §9

[13] = tested on: proteins with expanded polyglutamine (polyQ-GFP); experiment: OI-RD affinity screening with polyQ-GFP proteins; type: binding; settings: OI-RD difference images
Protocol: (§7) To identify compound(s) that can selectively bind to proteins containing expanded polyglutamine, screening was conducted using a method similar to 1.1, except for that the target protein HTTexon1-Q72-MBP in step (1) of 1.1 was replaced with the polyQ-GFP protein prepared in 10.1, and the target protein HTTexon1-Q25-MBP in step (2) of 1.1 was replaced with GFP.

MBP-ATXN3-Q68 [14] = target: T13, MBP-ATXN3-Q68; experiment: OI-RD affinity screening with MBP-ATXN3-Q68; type: binding; parameters: His8 with TEV protease cleavage site; made in house; host or cells: Escherichia coli Rosetta(DE3)pLsyS; settings: OI-RD difference images
Protocol: (§8) Screening was conducted using a method similar to 1.1, except for that the target protein HTTexon1-Q72-MBP in step (1) of 1.1 was replaced with MBP-ATXN3-Q68 and the target protein HTTexon1-Q25-MBP in step (2) of 1.1 was replaced with MBP-ATXN3-Q28, to obtain compounds that can selectively bind to ATXN3 with abnormally expanded polyQ (MBP-ATXN3-Q68).

GFP = experiment: OI-RD affinity screening with GFP; type: binding; settings: OI-RD difference images
Protocol: as §7

[15] = tested on: polyQ-GFP (Q72-GFP, Q25-GFP); experiment: polyQ-GFP level in HEK293T cells by Incucyte fluorescence counting; type: cell-based; settings: Q72-GFP vs Q25-GFP expressing HEK293T cells, 100 nM compound 1, 100 nM compound 3 or 50 nM compound 4, 2 days
Excerpt: (1) PolyQ-GFP cDNA sequence (expressing Met-polyQ-GFP, wherein polyQ was Q72 or Q25) was synthesized de novo and subcloned into pcDNA vector. It was transfected into HEK293T cells (ATCC, CRL-3216) through forward transfection to obtain Q72-GFP expressing cells and Q25-GFP expressing cells, respectively. And the same method was used to obtain cells expressing Q53-GFP, cells expressing Q46-GFP, and cells expressing Q38-GFP.
The Q72-GFP expressing cells and Q25-GFP expressing cells obtained in step (1) of 10.1 were used. […] Then the level of polyQ-GFP was measured by Incucyte fluorescence counting (FIG. 25).

MBP-ATXN3-Q28 [16] = target: T12, MBP-ATXN3-Q28; experiment: OI-RD affinity screening with MBP-ATXN3-Q28; type: binding; settings: OI-RD difference images
Protocol: as §8

Q25-GFP [17] = experiment: OI-RD affinity screening with Q25-GFP; type: binding; settings: OI-RD difference images
Excerpt: (1) PolyQ-GFP cDNA sequence (expressing Met-polyQ-GFP, wherein polyQ was Q72 or Q25) was synthesized de novo and subcloned into pcDNA vector. […] And the same method was used to obtain cells expressing Q53-GFP, cells expressing Q46-GFP, and cells expressing Q38-GFP.

T1 sequence (P42858 with tags, fused parts or gaps, stated change not applied): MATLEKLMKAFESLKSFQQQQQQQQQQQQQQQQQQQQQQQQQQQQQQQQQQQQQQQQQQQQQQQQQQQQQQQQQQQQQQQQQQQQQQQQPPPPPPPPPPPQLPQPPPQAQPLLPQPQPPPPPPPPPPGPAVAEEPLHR
T10 sequence (P42858 with tags, fused parts or gaps with the stated changes): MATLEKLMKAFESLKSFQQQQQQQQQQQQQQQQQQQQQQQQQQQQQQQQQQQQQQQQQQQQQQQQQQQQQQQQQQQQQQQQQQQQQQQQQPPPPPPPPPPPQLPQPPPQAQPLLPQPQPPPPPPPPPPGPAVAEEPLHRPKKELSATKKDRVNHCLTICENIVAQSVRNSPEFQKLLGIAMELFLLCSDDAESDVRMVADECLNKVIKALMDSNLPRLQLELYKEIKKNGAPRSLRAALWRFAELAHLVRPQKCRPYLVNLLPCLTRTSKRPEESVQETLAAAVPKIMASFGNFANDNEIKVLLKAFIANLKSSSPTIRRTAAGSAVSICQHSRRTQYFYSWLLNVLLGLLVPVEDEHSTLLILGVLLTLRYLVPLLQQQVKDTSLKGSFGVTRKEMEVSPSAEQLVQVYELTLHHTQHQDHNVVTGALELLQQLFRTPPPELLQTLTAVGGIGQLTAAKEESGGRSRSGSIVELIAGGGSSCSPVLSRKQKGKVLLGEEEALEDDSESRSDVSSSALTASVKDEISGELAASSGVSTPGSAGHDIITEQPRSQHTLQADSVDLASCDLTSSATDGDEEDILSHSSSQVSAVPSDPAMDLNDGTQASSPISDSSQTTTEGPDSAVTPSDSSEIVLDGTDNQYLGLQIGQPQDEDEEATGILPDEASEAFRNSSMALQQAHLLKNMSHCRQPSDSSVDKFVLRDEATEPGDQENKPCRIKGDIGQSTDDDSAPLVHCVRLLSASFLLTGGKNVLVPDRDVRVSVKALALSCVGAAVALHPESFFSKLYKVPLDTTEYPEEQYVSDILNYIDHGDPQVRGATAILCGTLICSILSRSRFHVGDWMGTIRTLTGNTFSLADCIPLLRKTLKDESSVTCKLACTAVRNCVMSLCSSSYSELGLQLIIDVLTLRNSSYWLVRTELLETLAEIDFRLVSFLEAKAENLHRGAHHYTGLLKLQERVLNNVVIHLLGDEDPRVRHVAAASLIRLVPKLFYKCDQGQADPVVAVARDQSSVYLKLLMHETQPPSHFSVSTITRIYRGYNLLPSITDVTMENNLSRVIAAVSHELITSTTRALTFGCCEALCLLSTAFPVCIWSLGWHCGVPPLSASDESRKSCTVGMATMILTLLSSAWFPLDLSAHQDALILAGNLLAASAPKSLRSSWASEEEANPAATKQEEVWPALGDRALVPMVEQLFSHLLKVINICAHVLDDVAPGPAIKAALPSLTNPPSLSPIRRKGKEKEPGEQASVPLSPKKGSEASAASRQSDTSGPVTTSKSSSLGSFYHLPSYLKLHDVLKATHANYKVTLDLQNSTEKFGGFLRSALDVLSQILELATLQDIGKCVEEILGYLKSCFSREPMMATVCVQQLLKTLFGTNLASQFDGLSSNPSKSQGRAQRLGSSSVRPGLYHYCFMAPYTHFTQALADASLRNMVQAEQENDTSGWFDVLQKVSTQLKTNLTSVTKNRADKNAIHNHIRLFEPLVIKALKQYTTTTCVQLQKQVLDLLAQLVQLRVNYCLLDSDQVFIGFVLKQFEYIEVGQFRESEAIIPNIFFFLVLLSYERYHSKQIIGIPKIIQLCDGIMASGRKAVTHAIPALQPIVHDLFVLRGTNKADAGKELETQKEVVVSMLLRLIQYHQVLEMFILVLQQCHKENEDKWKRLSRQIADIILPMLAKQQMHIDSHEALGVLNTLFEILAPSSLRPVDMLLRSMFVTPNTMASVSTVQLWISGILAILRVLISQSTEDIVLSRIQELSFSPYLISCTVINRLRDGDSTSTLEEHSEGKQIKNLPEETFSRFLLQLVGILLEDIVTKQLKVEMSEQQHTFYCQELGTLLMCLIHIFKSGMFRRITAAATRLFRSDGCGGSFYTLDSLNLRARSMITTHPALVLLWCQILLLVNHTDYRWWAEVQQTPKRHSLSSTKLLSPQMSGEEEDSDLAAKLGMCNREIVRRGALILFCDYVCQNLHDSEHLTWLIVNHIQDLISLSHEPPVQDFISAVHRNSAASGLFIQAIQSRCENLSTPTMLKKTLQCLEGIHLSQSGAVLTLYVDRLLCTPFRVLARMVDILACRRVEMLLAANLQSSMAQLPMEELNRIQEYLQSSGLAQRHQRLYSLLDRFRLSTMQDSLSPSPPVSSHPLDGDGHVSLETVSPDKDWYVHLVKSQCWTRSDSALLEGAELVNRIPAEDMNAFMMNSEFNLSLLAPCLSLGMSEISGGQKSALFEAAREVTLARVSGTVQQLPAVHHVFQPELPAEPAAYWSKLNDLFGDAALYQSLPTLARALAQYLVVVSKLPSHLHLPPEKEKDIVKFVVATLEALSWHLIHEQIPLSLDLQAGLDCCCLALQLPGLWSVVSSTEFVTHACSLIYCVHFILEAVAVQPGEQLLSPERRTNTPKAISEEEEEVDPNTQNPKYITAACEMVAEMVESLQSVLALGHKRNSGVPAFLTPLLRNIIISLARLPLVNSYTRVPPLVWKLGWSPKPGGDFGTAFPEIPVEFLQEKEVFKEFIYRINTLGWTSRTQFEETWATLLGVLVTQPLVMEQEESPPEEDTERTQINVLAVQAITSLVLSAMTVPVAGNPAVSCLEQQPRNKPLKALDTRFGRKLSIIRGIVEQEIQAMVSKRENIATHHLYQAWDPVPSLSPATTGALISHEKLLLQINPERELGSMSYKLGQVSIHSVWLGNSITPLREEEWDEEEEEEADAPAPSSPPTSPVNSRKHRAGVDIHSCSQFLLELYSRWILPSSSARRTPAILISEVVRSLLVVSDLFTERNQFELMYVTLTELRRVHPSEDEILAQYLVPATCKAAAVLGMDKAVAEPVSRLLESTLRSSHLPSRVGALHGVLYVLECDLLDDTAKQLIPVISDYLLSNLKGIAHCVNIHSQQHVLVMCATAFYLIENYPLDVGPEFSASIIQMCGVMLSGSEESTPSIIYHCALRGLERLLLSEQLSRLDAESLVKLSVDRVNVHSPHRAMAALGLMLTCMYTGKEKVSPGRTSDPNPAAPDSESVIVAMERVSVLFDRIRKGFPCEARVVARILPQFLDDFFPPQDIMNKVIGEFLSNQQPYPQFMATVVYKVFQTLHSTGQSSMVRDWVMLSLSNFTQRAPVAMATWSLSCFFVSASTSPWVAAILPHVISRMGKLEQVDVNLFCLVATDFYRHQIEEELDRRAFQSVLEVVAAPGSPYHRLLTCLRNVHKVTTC
T13 sequence (P54252 with tags, fused parts or gaps isoform P54252-4 with the stated changes): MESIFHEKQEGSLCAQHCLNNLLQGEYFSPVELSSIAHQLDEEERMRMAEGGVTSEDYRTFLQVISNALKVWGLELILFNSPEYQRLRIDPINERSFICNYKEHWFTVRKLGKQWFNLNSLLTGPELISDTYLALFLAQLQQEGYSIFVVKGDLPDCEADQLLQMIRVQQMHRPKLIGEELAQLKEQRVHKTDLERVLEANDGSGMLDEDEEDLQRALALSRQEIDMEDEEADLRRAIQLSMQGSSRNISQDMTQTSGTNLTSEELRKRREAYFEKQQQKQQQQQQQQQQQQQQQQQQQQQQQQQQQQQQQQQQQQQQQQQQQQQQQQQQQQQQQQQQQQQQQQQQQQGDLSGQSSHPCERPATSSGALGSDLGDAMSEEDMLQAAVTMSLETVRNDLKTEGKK
T8 sequence (P54253 with tags, fused parts or gaps with the stated changes): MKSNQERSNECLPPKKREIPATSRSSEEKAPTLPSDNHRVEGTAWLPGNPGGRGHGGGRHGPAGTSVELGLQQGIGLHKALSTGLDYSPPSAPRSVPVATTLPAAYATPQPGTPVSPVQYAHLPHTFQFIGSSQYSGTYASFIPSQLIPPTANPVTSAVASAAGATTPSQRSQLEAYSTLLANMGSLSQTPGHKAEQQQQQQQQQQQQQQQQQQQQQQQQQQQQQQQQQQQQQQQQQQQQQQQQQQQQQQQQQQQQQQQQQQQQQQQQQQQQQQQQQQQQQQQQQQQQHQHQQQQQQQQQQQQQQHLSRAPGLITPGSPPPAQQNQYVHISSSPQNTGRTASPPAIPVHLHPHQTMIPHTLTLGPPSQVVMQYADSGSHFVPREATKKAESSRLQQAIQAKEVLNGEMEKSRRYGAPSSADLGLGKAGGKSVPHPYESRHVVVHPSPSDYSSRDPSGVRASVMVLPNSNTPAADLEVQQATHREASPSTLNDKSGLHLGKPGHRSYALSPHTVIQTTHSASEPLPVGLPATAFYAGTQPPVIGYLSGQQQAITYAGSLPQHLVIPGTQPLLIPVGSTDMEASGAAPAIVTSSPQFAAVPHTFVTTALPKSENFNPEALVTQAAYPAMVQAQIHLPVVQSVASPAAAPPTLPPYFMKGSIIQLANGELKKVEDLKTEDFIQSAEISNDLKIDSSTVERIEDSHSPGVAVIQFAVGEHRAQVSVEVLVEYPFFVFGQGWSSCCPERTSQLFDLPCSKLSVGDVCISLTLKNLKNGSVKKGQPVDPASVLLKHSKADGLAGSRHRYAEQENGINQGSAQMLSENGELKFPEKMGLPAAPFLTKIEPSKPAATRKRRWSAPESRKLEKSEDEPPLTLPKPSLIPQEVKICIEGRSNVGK
T7 sequence (P54253 with tags, fused parts or gaps with the stated changes): as above
T12 sequence (P54252 with tags, fused parts or gaps isoform P54252-4 with the stated changes): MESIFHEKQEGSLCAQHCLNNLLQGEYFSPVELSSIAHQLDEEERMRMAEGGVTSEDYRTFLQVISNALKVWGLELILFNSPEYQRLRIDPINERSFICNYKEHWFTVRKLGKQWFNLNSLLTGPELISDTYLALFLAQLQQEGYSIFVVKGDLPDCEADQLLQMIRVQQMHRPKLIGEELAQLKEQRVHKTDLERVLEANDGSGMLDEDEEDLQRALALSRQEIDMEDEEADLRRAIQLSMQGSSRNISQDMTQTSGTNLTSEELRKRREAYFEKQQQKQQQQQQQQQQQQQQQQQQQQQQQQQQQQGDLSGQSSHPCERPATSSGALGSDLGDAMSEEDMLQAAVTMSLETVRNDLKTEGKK
T5 sequence (P42858 with tags, fused parts or gaps with the stated changes): as the sequence (P42858 with tags, fused parts or gaps with the stated changes) above

Compound: Cc1ccc(C(=O)N(CCCN)[C@@H](c2nc3cc(Cl)ccc3c(=O)n2Cc2ccccc2)C(C)C)cc1 [compound 2, ispinesib]
- Kd (HTTexon1-Q72-MBP): 29.2 nM
- binding to HTTexon1-Q72 (HTTexon1-Q72-MBP; OI-RD difference images): can bind
- Koff (HTTexon1-Q72-MBP; OI-RD, HTTexon1-Q72): 0.00623 min⁻¹
- Kon (HTTexon1-Q72-MBP; OI-RD, HTTexon1-Q72): 0.000213 min/nM
- Kd (LC3B [1]): 238 nM
- binding to LC3B (LC3B [1]; OI-RD difference images): can bind
- Koff (LC3B [1]; OI-RD, LC3B): 0.00586 min⁻¹
- Kon (LC3B [1]; OI-RD, LC3B): 2.46e-05 min/nM
- wtHTT levels (wtHTT): did not reduce wtHTT levels
- Kd (LC3B [2]): 3.1 µM
- wild-type ATXN3 protein level [3]: no decrease in wild-type ATXN3 protein level was observed
- concentration range in which the effect of selectively reducing mHTT levels was observed (mHTT [4]): 30 to 100 nM
- preferred concentration for selectively reducing mHTT levels (mHTT [4]): 100 nM
- Kd (flHTT-Q73): 130 nM
- mHTT levels (mHTT [5]; 2B7/MW1): Decreased mHTT levels were observed
- mHTT levels (mHTT [5]; presence of the autophagy inhibitor NH4Cl): this effect was not observed
- level of mutant ATXN1 protein (His-ATXN1-Q92) [6]: Decreased levels of mutant ATXN1 were observed
- binding to His-ATXN1-Q92 (His-ATXN1-Q92): can bind
- binding to HTTexon1-Q25 (HTTexon1-Q25-MBP): do not bind
- Kd [7]: 322 nM
- Koff ([7]; OI-RD, flHTT-Q73): 0.0207 min⁻¹
- Kon ([7]; OI-RD, flHTT-Q73): 6.43e-05 min/nM
- mutant ATXN3 protein level [8]: A decrease in mutant ATXN3 protein level was observed

Compound: O=C1Nc2ccc(Br)cc2/C1=C/c1cc(O)c(O)c(Br)c1 [compound 3]
- binding affinity to Q25-GFP (Q25-GFP [9]): no binding affinity
- binding affinity with normal ATXN3 protein (MBP-ATXN3-Q28) (MBP-ATXN3-Q28 [10]): no binding affinity
- mHTT level in cortices (mHTT [11]): significantly reduced mHTT level
- wild-type ATXN3 protein level [3]: no decrease in wild-type ATXN3 protein level was observed
- Kd (MBP-ATXN3-Q68 [12]): 1020 nM
- binding affinity to proteins with 38 or more glutamine repeats [13]: showed certain binding affinity
- binding to MBP-ATXN3-Q68 (MBP-ATXN3-Q68 [14]): binded
- binding to GFP (GFP): did not bind
- level of mutant ATXN1 protein (His-ATXN1-Q92) [6]: Decreased levels of mutant ATXN1 were observed
- binding to His-ATXN1-Q92 (His-ATXN1-Q92): can bind
- level of proteins containing expanded polyglutamine in cells (polyQ-GFP) [15]: can selectively reduce the level
- binding to MBP-ATXN3-Q28 (MBP-ATXN3-Q28 [16]): did not bind
- mutant ATXN3 protein level [8]: A decrease in mutant ATXN3 protein level was observed
- binding to Q25-GFP (Q25-GFP [17]): did not bind
